Values quoted from earlier work as cited in patent US4758437A, “Composition for long acting nicardipine preparation and process of producing the composition” (Yamanouchi Pharmaceutical Co., Ltd., priority 1987, dated 1988).

- solubility in the first fluid of Japanese Pharmacopeia IX (about pH 1.2, nicardipine or its salt): good solubility
- solubility in the second fluid of Japanese Pharmacopeia IX (about pH 7.5): sparingly soluble
- solubility in intestinal juice (intestinal juice): practically insoluble
Compound: COC(=O)C1=C(C)NC(C)=C(C(=O)OCCN(C)Cc2ccccc2)C1c1cccc([N+](=O)[O-])c1 (stereo not drawn) [nicardipine, 2,6-dimethyl-4-(3'-nitrophenyl)-1,4-dihydropyridine-3,5-dicarboxylic acid-3-methyl ester-5-β-(N-benzyl-N-methylamino)-ethyl ester]
